In experiment [1] the target is T1, Signal transducer and activator of transcription 1-alpha/beta (Homo sapiens, UniProt P42224).
T1 sequence (P42224 whole entry): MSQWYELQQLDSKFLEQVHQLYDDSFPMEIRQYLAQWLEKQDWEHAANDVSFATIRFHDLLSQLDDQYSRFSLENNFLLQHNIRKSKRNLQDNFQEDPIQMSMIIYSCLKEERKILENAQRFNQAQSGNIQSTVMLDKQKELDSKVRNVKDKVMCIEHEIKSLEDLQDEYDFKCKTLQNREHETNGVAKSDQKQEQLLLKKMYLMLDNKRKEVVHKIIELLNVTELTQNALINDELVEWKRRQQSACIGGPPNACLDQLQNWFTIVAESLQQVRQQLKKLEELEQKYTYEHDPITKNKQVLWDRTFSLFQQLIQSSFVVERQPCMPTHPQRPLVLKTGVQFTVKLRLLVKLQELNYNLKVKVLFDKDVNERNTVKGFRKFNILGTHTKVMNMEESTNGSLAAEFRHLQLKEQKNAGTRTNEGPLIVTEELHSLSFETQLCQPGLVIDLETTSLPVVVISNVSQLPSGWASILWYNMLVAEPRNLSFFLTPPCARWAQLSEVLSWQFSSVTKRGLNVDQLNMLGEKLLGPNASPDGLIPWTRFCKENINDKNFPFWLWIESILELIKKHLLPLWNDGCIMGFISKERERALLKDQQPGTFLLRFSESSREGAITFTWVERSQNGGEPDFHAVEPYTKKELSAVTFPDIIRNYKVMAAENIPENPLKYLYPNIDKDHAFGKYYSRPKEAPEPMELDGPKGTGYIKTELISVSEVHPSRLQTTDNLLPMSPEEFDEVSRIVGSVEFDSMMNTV
Put plainly: Inhibition of IFNgamma-induced STAT1 (unknown origin).

Experiment [2] is described as follows: Inhibition of IL6-induced STAT3 in human CAL33 cells.

Regarding `Clc1ccc(C2=Nn3c(nnc3-c3[nH]nc4c3CCC4)SC2)cc1Cl`, in experiment [1], the 50% inhibitory concentration (IC50) was > 50 µM. As for `Clc1ccc(C2=Nn3c(nnc3-c3cc(-c4ccccc4)n[nH]3)SC2)cc1Cl`, the half-maximal inhibitory concentration (IC50) in experiment [1] was > 50 µM.

As for `Clc1ccc(C2=Nn3c(nnc3-c3[nH]nc4c3CCC4)SC2)cc1`, the concentration for half-maximal inhibition (IC50) in experiment [1] is > 50 µM. Still for that read-out and setting: with `Clc1cccc(C2=Nn3c(nnc3-c3[nH]nc4c3CCC4)SC2)c1` the figure was > 50 µM. Consider `c1ccc(C2=Nn3c(nnc3-c3[nH]nc4c3CCC4)SC2)cc1`, for which the IC50 in experiment [1] was > 50 µM. Take `c1ccc(C2=Nn3c(nnc3-c3cc(-c4ccccc4)[nH]n3)SC2)cc1`: the IC50 in experiment [1] is > 50 µM. Take `COc1ccc(C2=Nn3c(nnc3-c3cc(-c4ccccc4)n[nH]3)SC2)cc1`: the figures for the IC50 in experiment [2] and in experiment [1] were 3.7 µM and > 50 µM, respectively. Turning to `c1cc(C2=Nn3c(nnc3-c3[nH]nc4c3CCC4)SC2)ccn1`, the 50% inhibitory concentration (IC50) in experiment [2] and in experiment [1] was > 50 µM throughout. Turning to `c1ccc(-c2cc(-c3nnc4n3N=C(c3ccncc3)CS4)[nH]n2)cc1`, the half-maximal inhibitory concentration (IC50) in experiment [2] and in experiment [1] was > 50 µM throughout. `Clc1ccc(C2=Nn3c(nnc3-c3[nH]nc4c3CCC4)SC2)s1`: the IC50 in experiment [1] was > 50 µM. Take `Clc1ccc(C2=Nn3c(nnc3-c3cc(-c4ccccc4)n[nH]3)SC2)s1`: the half-maximal inhibitory concentration (IC50) in experiment [2] and in experiment [1] was > 50 µM each time.

`C1=Nn2c(nnc2-c2[nH]nc3c2CCC3)SC1`: the IC50 in experiment [2] and in experiment [1] was > 50 µM throughout.

`C1=Nn2c(nnc2-c2cc(-c3ccccc3)n[nH]2)SC1`: the 50% inhibitory concentration (IC50) in experiment [2] and in experiment [1] was > 50 µM in each case. Take `CC1=Nn2c(nnc2-c2[nH]nc3c2CCC3)SC1`: the IC50 in experiment [2] and in experiment [1] was > 50 µM each time. `CC1=Nn2c(nnc2-c2cc(-c3ccccc3)[nH]n2)SC1`: the IC50 in experiment [2] and in experiment [1] was > 50 µM throughout.

As for `C1CCC(C2=Nn3c(nnc3-c3[nH]nc4c3CCC4)SC2)CC1`, the IC50 in experiment [2] is > 30 µM; in experiment [1] it was > 50 µM. In the same order, the values of `c1ccc(-c2cc(-c3nnc4n3N=C(C3CCCCC3)CS4)[nH]n2)cc1` are > 50 µM and > 50 µM. Consider `COc1ccc(C2CSc3nnc(-c4[nH]nc5c4CCC5)n3N2)cc1` (stereo not drawn), for which, in experiment [2], the half-inhibitory concentration (IC50) was > 50 µM. Take `COc1ccc(C2CSc3nnc(-c4cc(-c5ccccc5)n[nH]4)n3N2C(C)=O)cc1` (stereo not drawn): in experiment [2], the 50% inhibitory concentration (IC50) is > 50 µM. For the compound `Fc1ccc(-c2cc(-c3nnc4n3N=C(c3ccc(Cl)c(Cl)c3)CS4)[nH]n2)cc1`, the half-inhibitory concentration (IC50) in experiment [2] is 7.5 µM. In experiment [2], `Clc1ccc(-c2cc(-c3nnc4n3N=C(c3ccc(Cl)c(Cl)c3)CS4)[nH]n2)cc1` displayed an IC50 of 14.5 µM. Consider `Clc1ccc(C2=Nn3c(nnc3-c3[nH]nc4c3CCCC4)SC2)cc1Cl`, for which, in experiment [2], the half-inhibitory concentration (IC50) came out at 15.5 µM. Take `CC1Sc2nnc(-c3[nH]nc4c3CCC4)n2N=C1c1ccc(Cl)c(Cl)c1` (stereo not drawn): the half-maximal inhibitory concentration (IC50) in experiment [1] was > 50 µM. As to `COc1ccc(C2=Nn3c(nnc3-c3[nH]nc4c3CCC4)SC2C)cc1` (stereo not drawn), the IC50 in experiment [1] was > 50 µM. For the compound `CC1Sc2nnc(-c3cc(-c4ccc(F)cc4)n[nH]3)n2N=C1c1ccccc1` (stereo not drawn), in experiment [1], the 50% inhibitory concentration (IC50) was > 30 µM. Regarding `COc1ccc(C2=Nn3c(nnc3-c3cc(-c4ccc(F)cc4)n[nH]3)SC2C)cc1` (stereo not drawn), in experiment [1], the concentration for half-maximal inhibition (IC50) was > 30 µM. For `CC(C)C1Sc2nnc(-c3[nH]nc4c3CCC4)n2N=C1c1ccc(Cl)c(Cl)c1` (stereo not drawn), the IC50 in experiment [1] is > 50 µM. With `COc1ccc(C2=Nn3c(nnc3-c3[nH]nc4c3CCC4)SC2C(C)C)cc1` (stereo not drawn), the half-inhibitory concentration (IC50) in experiment [1] was > 50 µM.

`CC(C)CC1Sc2nnc(-c3[nH]nc4c3CCC4)n2N=C1c1ccc(Cl)c(Cl)c1` (stereo not drawn): the IC50 in experiment [1] was > 50 µM. On the same count and under the same terms, with `COc1ccc(C2=Nn3c(nnc3-c3cc(-c4ccccc4)n[nH]3)SC2CC(C)C)cc1` (stereo not drawn) the figure was > 50 µM; with `Clc1ccc(C2=Nn3c(nnc3-c3[nH]nc4c3CCC4)SC2Cc2ccccc2)cc1Cl` (stereo not drawn), > 50 µM; with `CC1(C)Sc2nnc(-c3[nH]nc4c3CCC4)n2N=C1c1ccc(Cl)c(Cl)c1`, > 50 µM.

In the case of `Clc1ccc(C2=Nn3c(nnc3-c3cc(-c4ccccc4)[nH]n3)SC2)cc1` [MLS000558549], the 50% inhibitory concentration (IC50) in experiment [1] was > 50 µM.

Broadly, the IC50 is the concentration needed to halve the response being measured.
